Measured values reported in patent US9510598B2, “Nitrogen-containing heterocyclic compounds for plant disease control” (BAYER CROPSCIENCE AG, priority 2012, dated 2016).
Where two headings read alike, the source gives them in different places.

Assays:
Puccinia recondita = assay: In vivo preventive test on Puccinia recondita (brown rust on wheat); conditions: 500 ppm; wheat plants sprayed 24 hours before contamination; grading 10 days after contamination vs control plants
Procedure: Wheat plants (“Scipion” variety), sown in starter cups on a 50/50 peat soil-pozzolana substrate and grown at 22° C. (12 h)/20° C. (12 h), are treated at the 1-leaf stage (10 cm height) by spraying with the active ingredient prepared as described above. Plants, used as controls, are treated with the mixture of acetone/tween/DMSO/water not containing the active material. After 24 hours, the plants are contaminated by spraying the leaves with an aqueous suspension of Puccinia recondita spores (100 000 spores per ml).

[1] = assay type: physicochemical
Septoria tritici = assay: In vivo preventive test on Septoria tritici (leaf spot on wheat); conditions: 500 ppm; wheat plants sprayed 24 hours before contamination; grading 21 to 28 days after contamination vs control plants
Summary of the method: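 Scipion wheat at 1-leaf stage sprayed with compound, controls receiving acetone/tween/DMSO/water vehicle; 24 h later leaves inoculated with Septoria tritici spores (500 000 spores per ml). Efficacy (%) graded versus control plants 21 to 28 days after contamination.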

Alternaria brassicae = assay: In vivo preventive test on Alternaria brassicae (leaf spot on radish); conditions: 500 ppm; radish plants sprayed 24 hours before contamination; grading 5 days after contamination vs control plants
Procedure: Radish plants (“Pernod Clair” variety), sown in starter cups on a 50/50 peat soil-pozzolana substrate and grown at 17° C., are treated at the 2-leaf stage by spraying with the active ingredient prepared as described above. Plants, used as controls, are treated with the mixture of acetone/tween/DMSO/water not containing the active material. After 24 hours, the plants are contaminated by spraying the leaves with an aqueous suspension of Alternaria brassicae spores (50 000 spores per ml). The spores are collected from a 15-day-old culture. […] Grading (% of efficacy) is carried out 5 days after the contamination, in comparison with the control plants.

Botrytis cinerea = assay: In vivo preventive test on Botrytis cinerea (grey mould); conditions: 500 ppm; gherkin plants sprayed 24 hours before contamination; grading 4-5 days after contamination vs control plants
Summary of the method: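 Gherkin plants ("Vert petit de Paris") sprayed with compound at Z11 cotyledon stage, then inoculated 24 h later with B. cinerea spores (50 000/ml) in PDB/fructose/NH4NO3/KH2PO4 nutrient solution. Incubated at 17 °C, 80% RH; % efficacy versus solvent-treated controls graded 4–5 days after contamination.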

Sphaerotheca fuliginea = assay: In vivo preventive test on Sphaerotheca fuliginea (powdery mildew on cucurbits); conditions: 500 ppm; gherkin plants sprayed 24 hours before contamination; grading 12 days after contamination vs control plants
Summary of the method: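 Preventive spray of gherkin plants at Z11 cotyledon stage, grown at 24° C; inoculation 24 hours later with Sphaerotheca fuliginea spores (100 000 spores per ml). Efficacy graded 12 days post-inoculation as % versus solvent-treated control plants.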

Phytophthora infestans = assay type: in vivo; conditions: 500 ppm; tomato plants sprayed 24 hours before contamination; grading 5 days after contamination vs control plants
[2] = method [a]: HPLC/LC-MS on reversed phase at pH 2.7, 0.1% formic acid in water / acetonitrile, gradient 10% to 95% acetonitrile
[3] = HPLC on reversed phase columns, method [a]: pH 2.7, 0.1% formic acid in water / acetonitrile, linear gradient 10% to 95% acetonitrile
[4] = method [a]: HPLC/LC-MS on reversed phase at pH 2.7, 0.1% formic acid in water / acetonitrile, linear gradient 10% to 95% acetonitrile

SMILES | % of efficacy (protection) (Puccinia recondita) [%] | log P [1, 2] | % of efficacy (protection) (Septoria tritici) [%] | log P [1, 3] | % of efficacy (protection) (Alternaria brassicae) [%] | % of efficacy (protection) (Botrytis cinerea) [%] | log P [1, 4] | % of efficacy (protection) (Sphaerotheca fuliginea) [%] | % of efficacy (protection) (Phytophthora infestans) [%]
CC1(C(N)=O)CC(c2ccc3ncc(Br)cc3c2)=NO1 (racemic) [compound 380] | 78 | 1.82[a] |  |  |  |  |  |  | 
CCC#Cc1cnc2ccc(C3=NOC(C)(C(=O)NCc4cn(CC)nc4C)C3)cc2c1 (racemic) [compound 394] | 92 | 2.75[a] |  |  |  |  |  |  | 
C#Cc1cnc2ccc(C3=NOC(C)(C(=S)NCc4cnn(C)c4)C3)cc2c1 (racemic) [compound 451] | 89 | 2.62[a] | 94 |  |  |  |  |  | 
CC1(C(=O)NC2CCC2)CC(c2ccc3ncc(I)cc3c2)=NO1 (racemic) [compound 454] | 94 | 3.06[a] |  |  |  |  |  |  | 
C#Cc1cnc2ccc(C3=NOC(OC)(C(=O)N4CCCCO4)C3)cc2c1 (racemic) [compound 457] | 83 | 2.41[a] | 88 |  |  |  |  |  | 
C#Cc1cnc2ccc(C3=NOC(C)(C(=O)NCC4OCCc5ccccc54)C3)cc2c1 (single isomer, unassigned) [compound 245] |  |  | 71 | 2.92^[a] | 94 |  |  |  | 
C#Cc1cnc2ccc(C3=NOC(C)(C(=O)NCC4OCCc5ccccc54)C3)cc2c1 (single isomer, unassigned) [compound 262] | 81 |  |  | 3.13^[a] |  | 95 |  |  | 
Cc1cnc(CNC(=O)C2(C)CC(c3ccc4ncc(Br)cc4c3)=NO2)cn1 (stereo not shown) [compound 85] |  |  | 75 |  | 96 |  | 2.2^[a] |  | 
C#Cc1cnc2ccc(C3=NOC(C)(C(=O)NCc4ccncc4)C3)cc2c1 (stereo not shown) [compound 99] |  |  |  |  | 70 | 100 | 1.2^[a] |  | 
C#Cc1cnc2ccc(C3=NOC(C)(C(=O)NCc4ncc(C(F)(F)F)cc4Cl)C3)cc2c1 (stereo not shown) [compound 157] | 72 |  |  |  |  |  | 3.48^[a] |  | 
C#Cc1cnc2ccc(C3=NOC(C)(C(=O)NCc4cccs4)C3)cc2c1 (stereo not shown) [compound 162] |  |  | 86 |  | 88 | 99 | 2.73^[a] | 94 | 
C#Cc1cnc2ccc(C3=NOC(C)(C(=O)NCc4ccco4)C3)cc2c1 (stereo not shown) [compound 164] |  |  |  |  | 88 | 71 | 2.51^[a] |  | 
C#Cc1cnc2ccc(C3=NOC(C)(C(=O)NCc4noc(C)n4)C3)cc2c1 (stereo not shown) [compound 170] |  |  | 71 |  | 81 | 100 | 1.99^[a] |  | 
Cc1nc(CNC(=O)C2(C)CC(c3ccc4ncc(Br)cc4c3)=NO2)no1 (stereo not shown) [compound 171] |  |  | 71 |  | 75 |  | 2.23^[a] |  | 
C#Cc1cnc2ccc(C3=NOC(C)(C(=O)NCc4cnn(C)c4C)C3)cc2c1 (stereo not shown) [compound 178] |  |  | 100 |  | 75 | 100 | 1.93^[a] |  | 
C#Cc1cnc2ccc(C3=NOC(C)(C(=O)NCc4cnn(C)c4)C3)cc2c1 (stereo not shown) [compound 180] |  |  | 100 |  | 75 | 95 | 1.86^[a] | 98 | 86
C#Cc1cnc2ccc(C3=NOC(C)(C(=O)NCC4CCOC4)C3)cc2c1 (stereo not shown) [compound 214] |  |  | 100 |  | 75 | 100 | 1.98^[a] | 78 | 
CC1(C(=O)NC2CC2C2CC2)CC(c2ccc3ncc(Br)cc3c2)=NO1 (stereo not shown) [compound 215] |  |  | 86 |  | 75 | 87 | 3.29^[a] |  | 
C#Cc1cnc2ccc(C3=NOC(C)(C(=O)NCc4ccc5c(c4)OCC5)C3)cc2c1 (stereo not shown) [compound 220] |  |  |  |  | 88 | 100 | 2.82^[a] |  | 
C#Cc1cnc2ccc(C3=NOC(C)(C(=O)NCc4ccc5ncccc5c4)C3)cc2c1 (stereo not shown) [compound 227] |  |  | 93 |  | 75 | 92 | 1.59^[a] |  | 
CC1(C(=O)NC2CCC2)CC(c2ccc3ncc(Br)cc3c2)=NO1 (stereo not shown) [compound 234] |  |  | 86 | 2.9^[a] | 75 | 99 |  | 94 | 
C#Cc1cnc2ccc(C3=NOC(C)(C(=O)NCc4ccc5ccoc5c4)C3)cc2c1 (stereo not shown) [compound 242] |  |  | 86 | 3^[a] | 94 | 86 |  |  | 
CCn1cc(CNC(=O)C2(c3ccccc3)CC(c3ccc4ncc(Br)cc4c3)=NO2)c(C)n1 (stereo not shown) [compound 278] |  |  |  | 3.18[a] | 86 |  |  | 100 | 
C#CC1(C(=O)NC(C)C)CC(c2ccc3ncc(Br)cc3c2)=NO1 (stereo not shown) [compound 402] |  | 2.92[a] | 100 |  | 71 | 99 |  |  | 
CCCn1cc(CNC(=O)C2(CC3CC3)CC(c3ccc4ncc(Br)cc4c3)=NO2)c(C)n1 (stereo not shown) [compound 424] | 72 | 3.33[a] |  |  |  |  |  |  | 
C#Cc1cnc2ccc(C3=NOC(OC)(C(=O)N(CC(F)F)C(C)C)C3)cc2c1 (stereo not shown) [compound 469] | 80 | 3.60[a] | 97 |  |  |  |  |  | 
CSC1(C(=O)NC(C)C)CC(c2ccc3ncc(Br)cc3c2)=NO1 (stereo not shown) [compound 530] | 79 |  |  | 2.88[a] |  | 100 |  |  | 
